# From article PMC12040169 (PLOS Biology, 2025)
# Assay: in vitro
# Conditions: human, hela cells, % viability
smiles,measurement,value
Cc1onc(-c2ccccc2Cl)c1C(=O)Nc1ccc(S(=O)(=O)N2CCC(C)CC2)cc1 [CBK265463],"viability at 28.5 h, 10 µM",107%
COc1cc(C)c(S(=O)(=O)n2c(C)nc3ccccc32)cc1C [CBK265464],"viability at 28.5 h, 10 µM",94%
O=C(/C=C/c1ccc(Cl)cc1)Nc1nnn[nH]1 [CBK265468],"viability at 28.5 h, 10 µM",81.8%
O=S(=O)(NCc1ccc(CNS(=O)(=O)c2ccccc2)cc1)c1ccccc1 [CBK265471],"viability at 28.5 h, 10 µM",113%
c1ccc(CN2CCN(CCN3CCn4c3nc3ccccc34)CC2)cc1 [CBK265472B],"viability at 28.5 h, 10 µM",97.5%
O=C(O)C1C2C=CC(O2)C1C(=O)Nc1ccc2c(c1)OCO2 (centres unmarked) [CBK265475],"viability at 28.5 h, 10 µM",88.6%
O=C(O)C1CCCCC1C(=O)N1CCN(C(c2ccccc2)c2ccccc2)CC1 (centres unmarked) [CBK265480],"viability at 28.5 h, 10 µM",90.7%
S=C(Nc1ccccc1)Nc1nc2ccccc2n1CCOc1ccccc1 [CBK265487],"viability at 28.5 h, 10 µM",113%
CC(=O)Nc1ccc(S(=O)(=O)NCCCc2ccccc2)cc1 [CBK265488],"viability at 28.5 h, 10 µM",89.8%
O=C(COC(=O)c1ccccc1NC(=O)c1ccccc1)c1ccc2ccccc2c1 [CBK265491],"viability at 28.5 h, 10 µM",94.9%
Cc1ccc(OCCOCCN(C)C)c(Cl)c1 [CBK265493G],"viability at 28.5 h, 10 µM",111%
Cc1nc(-c2ccc(S(=O)(=O)N3CCC(Cc4ccccc4)CC3)cc2)cs1 [CBK265494],"viability at 28.5 h, 10 µM",108%
Cc1ccc(C)c(C(=O)C2=C(O)C(=O)N(CCN(C)C)C2c2cccc(Cl)c2)c1 (centres unmarked) [CBK265495],"viability at 28.5 h, 10 µM",91.4%
O=C1NC(=S)S/C1=C\c1cn(-c2ccccc2)nc1-c1ccc(OCc2ccccc2)cc1 [CBK265496],"viability at 28.5 h, 10 µM",79.4%
O=C(/C=C/c1ccc(Cl)cc1Cl)Nc1sc2c(c1C(=O)NCc1cccnc1)CCCC2 [CBK265497],"viability at 28.5 h, 10 µM",99.3%
O=C(Nc1sc2c(c1C(=O)NCc1cccnc1)CCCC2)c1ccc(Cl)cc1 [CBK265498],"viability at 28.5 h, 10 µM",88.2%
Cc1cccc(C)c1OCC(=O)Nc1cccc(Oc2ccc3c(c2)C(=O)N(c2ccccc2)C3=O)c1 [CBK265499],"viability at 28.5 h, 10 µM",100%
O=C(O)c1cc2oc3ccccc3c3ccccc3oc2cc1C(=O)Nc1cccc([N+](=O)[O-])c1 [CBK265500],"viability at 28.5 h, 10 µM",99.1%
O=S(=O)(c1ccc(-c2csc(-c3cccnc3)n2)cc1)N1CCCCCC1 [CBK265502],"viability at 28.5 h, 10 µM",106%
Cc1ccc(C)c(C(=O)C2=C(O)C(=O)N(CCCN3CCOCC3)C2c2cccc([N+](=O)[O-])c2)c1 (centres unmarked) [CBK265503],"viability at 28.5 h, 10 µM",86.2%
CC(Oc1ccc(F)cc1)C(=O)Nc1ccc(S(N)(=O)=O)cc1 (centres unmarked) [CBK265506],"viability at 28.5 h, 10 µM",92.3%
Cc1cccc(OCC(=O)NCCCc2ccccc2)c1C [CBK265507],"viability at 28.5 h, 10 µM",99.9%
CCOc1cc(/C=C2\SC(=S)N(Cc3ccccc3)C2=O)cc(Cl)c1OC(=O)c1ccco1 [CBK265509],"viability at 28.5 h, 10 µM",106%
CCOc1cc(/C=C2\SC(=N)NC2=O)ccc1OC(=O)c1cccs1 [CBK265510],"viability at 28.5 h, 10 µM",107%
O=[N+]([O-])c1ccccc1OCCNCc1ccccc1 [CBK265511G],"viability at 28.5 h, 10 µM",101%
Cc1ccc(C(=O)C(OC(=O)COc2ccccc2C)c2ccccc2)cc1C (centres unmarked) [CBK265512],"viability at 28.5 h, 10 µM",85.3%
O=C(O)c1ccc(NC(=O)c2ccccc2NC(=O)c2cccc(Br)c2)cc1 [CBK265517],"viability at 28.5 h, 10 µM",102%
O=C(Nc1ccc(C(=O)OCC(=O)c2cccc3ccccc23)cc1)c1ccccc1 [CBK265518],"viability at 28.5 h, 10 µM",115%
Cc1ccc(C(=O)C(OC(=O)CN2C(=O)c3cccc([N+](=O)[O-])c3C2=O)c2ccccc2)cc1C (centres unmarked) [CBK265519],"viability at 28.5 h, 10 µM",109%
O=C(Cc1ccccc1[N+](=O)[O-])NCCCN1CCOCC1 [CBK265520],"viability at 28.5 h, 10 µM",92%
COc1ccccc1Cc1noc(COc2cccc(C)c2C)n1 [CBK265521],"viability at 28.5 h, 10 µM",99.9%
O=C(O)c1cccc(NC(=O)c2ccc3c(c2)C(=O)N(Cc2cccnc2)C3=O)c1 [CBK265523],"viability at 28.5 h, 10 µM",88.5%
O=C(COC(=O)c1cc(O)nc2ccccc12)c1ccccc1Cl [CBK265524],"viability at 28.5 h, 10 µM",95.2%
O=C(OCC(=O)c1cccc2ccccc12)c1cc2ccccc2cc1O [CBK265526],"viability at 28.5 h, 10 µM",102%
O=C(NCN1CCN(c2ccccc2F)CC1)c1cccnc1 [CBK265530],"viability at 28.5 h, 10 µM",90%
COc1ccccc1N1C(=O)CC(N2CCC(C(N)=O)(N3CCCCC3)CC2)C1=O (centres unmarked) [CBK265533],"viability at 28.5 h, 10 µM",84.3%
C(=C\c1ccccc1)/Cn1c(COc2ccccc2)nc2ccccc21 [CBK265535],"viability at 28.5 h, 10 µM",91.6%
O=C1N(CN2CCN(C(c3ccccc3)c3ccccc3)CC2)c2ccccc2C12OCCO2 [CBK265537],"viability at 28.5 h, 10 µM",87.1%
Nc1nc(CSCCO)nc(Nc2ccc(F)cc2)n1 [CBK265542],"viability at 28.5 h, 10 µM",98.3%
Cc1ccc(C(=O)CCC(=O)CCC(=O)O)cc1 [CBK265546],"viability at 28.5 h, 10 µM",95.6%
Cc1cccc(C)c1NC(=O)c1c(NC(=O)c2ccco2)sc2c1CCC(C)C2 (centres unmarked) [CBK265550],"viability at 28.5 h, 10 µM",107%
